# Reference: patent US8551448B2, “Rotanone analogs: method of preparation and use” (The Regents of the University of California, priority 2006, dated 2013)
# Like-named read-outs stand apart in the source and are kept apart here.
# What was measured:
# [1] = Biodistribution of iodorotenol and iodorotenone compounds in rats (organs and blood weighed and counted); conditions: for uptake in the heart relative to the Z isomer: twenty microcuries into tail vein
# Method: Evaluation of the iodorotenol and iodorotenone compounds. […] Twenty microcuries of the compound was injected into the rat tail vein. At various time points post injection (30 m, 1 h, 2 h, and 4 h) rats were euthanized and the organs and blood were weighed and counted.
# [2] = Dual head planar whole body imaging in canines; conditions: dogs; for heart uptake and retention (planar images): 4-6 mCi 123I compound iv in front leg vein, scans to 7 h (FIG. 17); for uptake in the thyroid: no thyroid blocking agent prior to the scan
# Method: Two 20-25 kg dogs were anesthetized with iv sodium pentathol and maintained on inhaled isoflurane. Four to six mCi of Z-[^123I]Iodorotenone or E-[^123I]Iodorotenone was injected in a front leg vein. Dual head planar imaging was carried out using the GE Millenium SPECT scanner with Hawkeye xray CT. The scanning protocol was serial 4 m whole body scans over the first hour, 8 m whole body scans from 1-2 h and 30 min whole body scans out to 7 h post injection of the tracer. […] No thyroid blocking agent was introduced prior to the scan.
# [3] = system: isolated blood perfused rabbit heart; conditions: cited from earlier work
Compound,uptake in the heart relative to the Z isomer [1],heart uptake and retention (planar images) [2],uptake in the thyroid [2],further results
"COc1cc2c(cc1OC)C1C(CO2)Oc2c(ccc3c2CC(C(C)=CI)O3)C1O (stereo not drawn) [E-iodorotenol, E-7′-iodorotenol]",two-fold increase,,,
"COc1cc2c(cc1OC)[C@@H]1C(=O)c3ccc4c(c3O[C@@H]1CO2)C[C@H](/C(C)=C/I)O4 [E-iodorotenone, E-7′-iodorotenone]",nearly double,greater heart uptake and retention,minimal,"heart uptake, injected dose in the heart tissue ([1]; tail vein injection, at 1 hour): 6.5 % injected dose; time to which the heart is clearly visible ([2]; planar imaging post injection): 4.5 h"
[C-]#[N+]CC(C)(C)OC.[C-]#[N+]CC(C)(C)OC.[C-]#[N+]CC(C)(C)OC.[C-]#[N+]CC(C)(C)OC.[C-]#[N+]CC(C)(C)OC.[C-]#[N+]CC(C)(C)OC.[Tc] [Tc-99m sestamibi],,,,net heart retention ([3]; at 1 min): 0.41±0.11; net heart retention ([3]; at 26 min): 0.27±0.11; extraction [3]: 0.48±0.10
"COc1cc2c(cc1OC)[C@@H]1C(=O)c3ccc4c(c3O[C@@H]1CO2)C[C@H](/C(C)=C\I)O4 [Z-iodorotenone, Z-7′-iodorotenone]",,washed out of the heart faster,minimal,"clearance through the gallbladder and stomach ([2]; planar imaging, compared with the E isomer): more rapidly"
